# Key:
# [1] = test system: TPA-treated mouse ears (erythema); experiment: Mouse ear model of TPA-induced contact inflammation: erythema inhibition (Δa* redness, chroma meter); type: in vivo; settings: for erythema inhibition (statement in words): in vivo activity, no dose stated; for % Inhibition Erythema: TPA-treated mouse ear, 24 hours
# Source text: (§1) G. et al., Anti-inflammatory Drugs, Clin. Pharmacol. Ther. 16, 900-4 (1974); Young et al., Tachyphylaxis in 12-Otetradecanoylphorbolacetate-and Arachidonic Acid-Induced Ear Edema; J. Invest. Dermatol. 80:48-52, (1983); Tramposch et al., In Vivo Models of Inflammation, (Morgan D W, Marshall L A eds), Birkhaüser Verlag: Basel, pp 179-204, 1999; and Gordon et al., Topical N-Acetyl-S-Farnesyl-L-Cysteine Inhibits Mouse Skin Inflammation, and Unlike Dexamethasone, Its Effects Are Restricted to the Application Site, J. Invest. Dermatol., 128(3):643-54, 2008 March)]. Moreover, the mouse ear model has been used by various groups to identify and compare members of differing classes of anti-inflammatory agents with multiple mechanisms of action (reviewed in Tramposch et al., 1999, supra).
# Another well documented biomarker of skin inflammation is skin redness, termed erythema, which is caused by capillary congestion and dilation in response to various chemical and environmental insults (see Denig, N. I. et al., Irritant Contact Dermatitis. Clues to Causes, Clinical Characteristics, and Control, Postgrad Med., May (1998); 103(5):199-200, 207-8, 212-3). […] The percent inhibition of erythema was determined by taking the average Δa* redness value of compound-treated ears and dividing it by the average Δa* value of 12 ears that only received TPA and subtracting that value from 100%. These values were corrected for the Δa* value of non TPA-treated mouse ears of littermate controls. […] Gordon et al., “Topical N-acetyl-5-farnesyl-L-cysteine Inhibits Mouse Skin Inflammation, and Unlike Dexamethasone, its Effects Are Restricted to the Application Site”, J. Invest. Derm., Vol. 128 pp. 643-654 (2008).
# [2] = test system: dermal neutrophil infiltration, neutrophil marker myeloperoxidase (MPO); experiment: Mouse ear model of TPA-induced contact inflammation: MPO inhibition (dermal neutrophil infiltration); type: in vivo; settings: for MPO (myeloperoxidase) inhibition (statement in words): in vivo activity, no dose stated; for % Inhibition MPO: TPA-treated mouse ear, 24 hours
# Source text: as §1
# To assay for inhibition of dermal neutrophil infiltration by S-isoprenyl and S-farnesyl cysteine compounds, a standard method was used (see Bradley et al., 1982, supra; Young et al., 1983, supra; De Young et al, “Edema and Cell Infiltration in the Phorbol Ester-treated Mouse Ear are Temporally Separate and can be Differentially Modulated by Pharmacologic Agents”, Agents Actions, 26(3-4): 335-41 (March 1989); and Rao et al. (1993) Comparative Evaluation of Arachidonic Acid (AA)-and Tetradecanoylphorbol Acetate (TPA)-Induced Dermal Inflammation, Inflammation 17:723-41). Briefly, we homogenized 6 mm biopsy punches taken from both compound-treated ears as well as TPA-treated and non-treated control groups. We quantitated the levels of MPO by a calorimetric reaction that was measured spectrophotometrically. The percent inhibition of neutrophil infiltration by each S-isoprenyl and S-farnesyl cysteine compound was determined by comparing the average MPO levels in the presence and absence of these compounds. […] Gordon et al., “Topical N-acetyl-5-farnesyl-L-cysteine Inhibits Mouse Skin Inflammation, and Unlike Dexamethasone, its Effects Are Restricted to the Application Site”, J. Invest. Derm., Vol. 128 pp. 643-654 (2008).
# [3] = test system: TPA-treated mouse ears (edema); experiment: Mouse ear model of TPA-induced contact inflammation: edema inhibition (ear thickness); type: in vivo; settings: for edema inhibition (statement in words): in vivo activity, no dose stated; for % Inhibition Edema: TPA-treated mouse ear, 24 hours
# Source text: as §1
# The protocol for inducing in vivo acute contact inflammation on the ears of live mice has been described elsewhere (reviewed in Tramposch, 1999, supra). In brief, mice were sedated and their ears were treated with 1.2 μg/20 uL TPA (i.e., tetradecanoylphorbol-13-acetate). […] After 24 hours, the mice were sacrificed and edema was measured by taking micrometer readings of each ear. The percent inhibition of edema was determined by taking the average ear thickness of compound-treated ears and dividing it by the average thickness of 12 ears that only received TPA and subtracting that value from 100%. These values were corrected for the thickness of normal, non TPA-treated mouse ears of littermate controls. […] ED50 values were calculated as described in Gordon et al., “Topical N-acetyl-5-farnesyl-L-cysteine Inhibits Mouse Skin Inflammation, and Unlike Dexamethasone, its Effects Are Restricted to the Application Site”, J. Invest. Derm., Vol. 128 pp. 643-654 (2008).
# dermal inflammation = settings: mice, background statement; cited from earlier work
# [4] = target: membrane-associated isoprenyl-5-cysteinyl methyltransferase (Homo sapiens, UniProt O60725); settings: background statement; cited from earlier work
# Sequence of membrane-associated isoprenyl-5-cysteinyl methyltransferase (O60725 whole entry): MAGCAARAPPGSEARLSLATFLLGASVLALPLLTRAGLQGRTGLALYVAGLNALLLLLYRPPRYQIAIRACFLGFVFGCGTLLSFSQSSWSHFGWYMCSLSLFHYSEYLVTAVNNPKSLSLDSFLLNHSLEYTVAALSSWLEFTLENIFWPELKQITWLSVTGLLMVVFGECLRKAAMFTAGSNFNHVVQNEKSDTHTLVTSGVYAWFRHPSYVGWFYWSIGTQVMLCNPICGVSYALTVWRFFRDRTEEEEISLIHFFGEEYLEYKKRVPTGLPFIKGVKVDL
# [5] = test system: neutrophil, macrophage, and platelet responses; settings: in vitro, background statement; cited from earlier work
Compound,erythema inhibition (statement in words) [1],MPO (myeloperoxidase) inhibition (statement in words) [2],% Inhibition Erythema ([1]; topical dose 0.8 mg/20 μL),edema inhibition (statement in words) [3],% Inhibition Erythema ([1]; topical dose 0.2 mg/20 μL),% Inhibition MPO ([2]; topical dose 0.2 mg/20 μL),% Inhibition Edema ([3]; topical dose 0.2 mg/20 μL),% Inhibition MPO ([2]; topical dose 0.8 mg/20 μL),% Inhibition Edema ([3]; topical dose 0.8 mg/20 μL),reduction of dermal inflammation (dermal inflammation),inhibition of isoprenyl-S-cysteinyl methyltransferase (mode) [4],"block of neutrophil, macrophage and platelet responses [5]"
CC(=O)NNC(=O)[C@H](CSC/C=C(\C)CC/C=C(\C)CCC=C(C)C)NC(C)=O [Compound D],erythema inhibition,MPO (myeloperoxidase) inhibition,,,,,,,,,,
CC(=O)N[C@@H](CSC/C=C(\C)CC/C=C(\C)CCC=C(C)C)C(=O)NNc1ccccc1 [Compound C],erythema inhibition,MPO (myeloperoxidase) inhibition,— 13.41 ± 11.92%,edema inhibition,,,,,,,,
CC(C)=CCC/C(C)=C/CC/C(C)=C/CSC[C@H](NC(=O)CCC(F)(F)F)C(=O)NN [Compound F],erythema inhibition,MPO (myeloperoxidase) inhibition,,edema inhibition,11.04 ± 7.28 — %,21.33 ± 12.68 — %,7.86 ± 0.98 — %,,,,,
CC(=O)N[C@@H](CSC/C=C(\C)CC/C=C(\C)CCC=C(C)C)C(=O)NN [Compound A],erythema inhibition,MPO (myeloperoxidase) inhibition,,edema inhibition,,,,— 93.53 ± 1.13%,— 42.36 ± 1.99%,,,
"CC(=O)N[C@@H](CSCC=C(C)CCC=C(C)CCC=C(C)C)C(=O)O [AFC, N-acetyl-5-farnesyl-L-cysteine]",,,,,,,,,,effectively reduces dermal inflammation in mice,competitive inhibitor,"block some neutrophil, macrophage, and platelet responses in vitro"
CNNC(=O)[C@H](CSC/C=C(\C)CC/C=C(\C)CCC=C(C)C)NC(C)=O [Compound E],erythema inhibition,MPO (myeloperoxidase) inhibition,— 7.68 ± 8.15%,edema inhibition,,,,,— 5.85 ± 7.02%,,,
CC(=O)N[C@@H](CSC/C=C(\C)CC/C=C(\C)CCC=C(C)C)C(=O)NO [Compound B],erythema inhibition,MPO (myeloperoxidase) inhibition,,edema inhibition,,,,— 87.45 ± 1.37%,— 33.64 ± 3.03%,,,

# — patent US20090170917A1, “Acid Mimic Compounds for the Inhibition of Isoprenyl-S-Cysteinyl Methyltransferase” (priority 2007, published 2009)
